According to the NIST ThermoML archive (doi:10.1016/j.jct.2012.02.038):
Where “and” joins values, the source holds several entries; their conditions need not be identical. Identical values can stand only once.

What was measured:
[1] = refractive index (other wavelength) (dimensionless); xn = mol fraction of the nth substance listed; settings: 101.3 kPa, Liquid, Wavelength=632.8 nm, Minimum deviation technique
[2] = refractive index (other wavelength) (dimensionless); settings: 101.3 kPa, Liquid, Wavelength=632.8 nm, Minimum deviation technique

COC(=O)CCCCC(=O)OC [dimethyl 1,6-hexanedioate] + CCCCCCCCC
[1], 305.07 K
Settings	refractive index
x1 = 0.101	1.4
x1 = 0.2	1.4017
x1 = 0.295	1.404
x1 = 0.39	1.406
x1 = 0.492	1.4085
x1 = 0.594	1.411
x1 = 0.713	1.4143
x1 = 0.79	1.4163
x1 = 0.902	1.4197

COC(=O)CCCCC(=O)OC [dimethyl 1,6-hexanedioate] + CCCCCCCC
[1], 299.79 K
Settings	refractive index
x1 = 0.099	1.3955
x1 = 0.2	1.3985
x1 = 0.302	1.4014
x1 = 0.4	1.4047
x1 = 0.5	1.408
x1 = 0.602	1.4113
x1 = 0.701	1.4146
x1 = 0.8	1.418
x1 = 0.899	1.4214

CCCCCCCC [octane]
[2]
Settings	refractive index
293.23 K	1.3964
294.23 K	1.3959
295.29 K	1.3954
296.27 K	1.3949
297.41 K	1.3944
298.48 K	1.3939
299.5 K	1.3934

COC(=O)CCCCC(=O)OC [dimethyl 1,6-hexanedioate]
[2]
Settings	refractive index
293.15 K	1.4275
294.14 K	1.4271
295.19 K	1.4267
296.25 K	1.4263
298.35 K	1.4254
299.4 K	1.425 and 1.4249
300.18 K	1.4246
301 K	1.4243
301.84 K	1.4239
302.58 K	1.4236
303.19 K	1.4234
303.88 K	1.4231

CCCCCCCCC [nonane]
[2]
Settings	refractive index
299.25 K	1.4015
300.07 K	1.4011
300.85 K	1.4007
301.85 K	1.4003
302.57 K	1.3999
303.3 K	1.3995
303.83 K	1.3993
